Measured values reported in patent US11572590B2, “Methods for evaluating tumor cell spheroids using 3D microfluidic cell culture device” (Dana-Farber Cancer Institute, Inc., priority 2017, dated 2023).
Read-outs that look alike come from different tables or passages of the source.

Legend:
Test in all cases: SelectScreen Kinase Profiling, single point inhibition and IC50 for off-target kinases
Type in all cases: biochemical
off-target kinases [1] = molecular target: off-target kinases (Homo sapiens, UniProt Q9NY57); details: STK32B (YANK2), LanthaScreen Binding
off-target kinases [2] = molecular target: off-target kinases (Homo sapiens, UniProt P22607, K650E); details: FGFR3 K650E (mutant), ZLYTE, ATP Km app
off-target kinases [3] = molecular target: off-target kinases (Homo sapiens, UniProt Q9HC98); details: NEK6, ZLYTE, ATP Km app
off-target kinases [4] = molecular target: off-target kinases (Homo sapiens, UniProt P07949, M918T); details: RET M918T, mutant y, LanthaScreen Binding
off-target kinases [5] = molecular target: off-target kinases (Homo sapiens, UniProt P27448); details: MARK3, ATP Km app, ZLYTE
off-target kinases [6] = molecular target: off-target kinases (Homo sapiens, UniProt P17948); details: FLT1 (VEGFR1), ZLYTE, ATP Km app
off-target kinases [7] = molecular target: off-target kinases (Homo sapiens, UniProt P49840); details: GSK3A (GSK3 alpha), ZLYTE, ATP Km app
off-target kinases [8] = molecular target: T1, off-target kinases (Homo sapiens, UniProt P51813); details: BMX, ZLYTE, ATP Km app
T1 sequence (P51813 1-675): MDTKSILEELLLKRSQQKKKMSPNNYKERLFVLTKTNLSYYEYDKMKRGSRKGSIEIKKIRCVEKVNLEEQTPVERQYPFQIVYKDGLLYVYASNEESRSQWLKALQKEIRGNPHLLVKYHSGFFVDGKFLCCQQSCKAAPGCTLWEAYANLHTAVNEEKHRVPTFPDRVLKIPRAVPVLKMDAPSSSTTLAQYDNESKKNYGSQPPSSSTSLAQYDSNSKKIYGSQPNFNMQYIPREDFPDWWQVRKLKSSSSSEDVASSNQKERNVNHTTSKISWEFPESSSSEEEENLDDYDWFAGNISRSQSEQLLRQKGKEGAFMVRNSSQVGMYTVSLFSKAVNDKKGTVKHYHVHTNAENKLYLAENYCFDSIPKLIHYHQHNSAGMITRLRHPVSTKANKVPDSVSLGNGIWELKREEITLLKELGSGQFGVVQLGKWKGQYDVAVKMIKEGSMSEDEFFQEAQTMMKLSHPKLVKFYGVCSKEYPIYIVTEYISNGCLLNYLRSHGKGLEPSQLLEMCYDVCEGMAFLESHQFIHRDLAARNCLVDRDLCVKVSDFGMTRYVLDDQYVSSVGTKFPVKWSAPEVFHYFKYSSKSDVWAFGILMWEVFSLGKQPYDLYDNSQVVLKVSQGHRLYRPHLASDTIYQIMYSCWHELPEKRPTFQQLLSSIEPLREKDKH

off-target kinases [9] = molecular target: off-target kinases (Homo sapiens, UniProt Q14680); details: MELK, ZLYTE, ATP Km app
off-target kinases [10] = molecular target: off-target kinases (Homo sapiens, UniProt Q9Y4K4); details: MAP4K5 (KHS1), ZLYTE, ATP Km app

Chain of off-target kinases (Homo sapiens, UniProt Q9HC98) (Q9HC98 whole entry): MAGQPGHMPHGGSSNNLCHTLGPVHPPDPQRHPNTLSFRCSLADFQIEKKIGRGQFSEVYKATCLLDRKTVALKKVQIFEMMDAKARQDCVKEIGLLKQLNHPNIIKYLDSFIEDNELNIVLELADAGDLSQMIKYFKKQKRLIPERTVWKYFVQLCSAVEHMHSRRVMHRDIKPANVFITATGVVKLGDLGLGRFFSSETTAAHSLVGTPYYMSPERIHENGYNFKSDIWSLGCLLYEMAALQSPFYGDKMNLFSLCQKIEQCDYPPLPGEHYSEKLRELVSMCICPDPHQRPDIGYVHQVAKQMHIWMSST
Chain of off-target kinases (Homo sapiens, UniProt P22607, K650E) (P22607 23-806 K650E): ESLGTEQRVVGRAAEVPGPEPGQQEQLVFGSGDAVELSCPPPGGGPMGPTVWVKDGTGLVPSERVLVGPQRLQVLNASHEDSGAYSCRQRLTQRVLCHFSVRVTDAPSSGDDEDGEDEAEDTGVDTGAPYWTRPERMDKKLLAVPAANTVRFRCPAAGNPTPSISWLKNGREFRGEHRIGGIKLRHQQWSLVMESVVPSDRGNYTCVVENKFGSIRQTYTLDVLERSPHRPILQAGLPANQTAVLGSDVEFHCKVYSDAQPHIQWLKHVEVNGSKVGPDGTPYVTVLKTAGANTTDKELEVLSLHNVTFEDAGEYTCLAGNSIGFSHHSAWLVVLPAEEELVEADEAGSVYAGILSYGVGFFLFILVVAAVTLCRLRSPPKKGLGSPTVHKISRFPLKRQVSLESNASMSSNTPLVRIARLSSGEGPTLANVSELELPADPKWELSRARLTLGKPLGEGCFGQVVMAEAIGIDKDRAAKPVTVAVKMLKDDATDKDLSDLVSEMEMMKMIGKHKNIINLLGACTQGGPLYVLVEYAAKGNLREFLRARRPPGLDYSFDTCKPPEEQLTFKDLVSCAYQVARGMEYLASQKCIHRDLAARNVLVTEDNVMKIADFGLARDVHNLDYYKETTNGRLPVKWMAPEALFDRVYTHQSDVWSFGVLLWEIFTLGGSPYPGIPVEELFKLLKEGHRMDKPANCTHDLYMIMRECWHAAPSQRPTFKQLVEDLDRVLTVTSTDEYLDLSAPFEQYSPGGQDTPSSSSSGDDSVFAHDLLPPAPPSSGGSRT
Chain of off-target kinases (Homo sapiens, UniProt Q9NY57) (Q9NY57 whole entry): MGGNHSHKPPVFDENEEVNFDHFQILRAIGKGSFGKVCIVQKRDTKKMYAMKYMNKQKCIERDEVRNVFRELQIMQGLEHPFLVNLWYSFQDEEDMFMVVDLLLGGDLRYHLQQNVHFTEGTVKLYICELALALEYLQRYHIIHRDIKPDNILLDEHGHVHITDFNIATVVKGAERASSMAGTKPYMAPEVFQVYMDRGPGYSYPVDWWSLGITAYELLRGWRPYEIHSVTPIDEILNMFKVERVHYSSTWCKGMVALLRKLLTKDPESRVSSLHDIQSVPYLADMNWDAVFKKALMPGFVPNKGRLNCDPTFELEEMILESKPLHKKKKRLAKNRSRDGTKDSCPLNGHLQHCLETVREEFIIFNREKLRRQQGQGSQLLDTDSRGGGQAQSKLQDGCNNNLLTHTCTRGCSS
Chain of off-target kinases (Homo sapiens, UniProt P07949, M918T) (P07949 29-1114 M918T): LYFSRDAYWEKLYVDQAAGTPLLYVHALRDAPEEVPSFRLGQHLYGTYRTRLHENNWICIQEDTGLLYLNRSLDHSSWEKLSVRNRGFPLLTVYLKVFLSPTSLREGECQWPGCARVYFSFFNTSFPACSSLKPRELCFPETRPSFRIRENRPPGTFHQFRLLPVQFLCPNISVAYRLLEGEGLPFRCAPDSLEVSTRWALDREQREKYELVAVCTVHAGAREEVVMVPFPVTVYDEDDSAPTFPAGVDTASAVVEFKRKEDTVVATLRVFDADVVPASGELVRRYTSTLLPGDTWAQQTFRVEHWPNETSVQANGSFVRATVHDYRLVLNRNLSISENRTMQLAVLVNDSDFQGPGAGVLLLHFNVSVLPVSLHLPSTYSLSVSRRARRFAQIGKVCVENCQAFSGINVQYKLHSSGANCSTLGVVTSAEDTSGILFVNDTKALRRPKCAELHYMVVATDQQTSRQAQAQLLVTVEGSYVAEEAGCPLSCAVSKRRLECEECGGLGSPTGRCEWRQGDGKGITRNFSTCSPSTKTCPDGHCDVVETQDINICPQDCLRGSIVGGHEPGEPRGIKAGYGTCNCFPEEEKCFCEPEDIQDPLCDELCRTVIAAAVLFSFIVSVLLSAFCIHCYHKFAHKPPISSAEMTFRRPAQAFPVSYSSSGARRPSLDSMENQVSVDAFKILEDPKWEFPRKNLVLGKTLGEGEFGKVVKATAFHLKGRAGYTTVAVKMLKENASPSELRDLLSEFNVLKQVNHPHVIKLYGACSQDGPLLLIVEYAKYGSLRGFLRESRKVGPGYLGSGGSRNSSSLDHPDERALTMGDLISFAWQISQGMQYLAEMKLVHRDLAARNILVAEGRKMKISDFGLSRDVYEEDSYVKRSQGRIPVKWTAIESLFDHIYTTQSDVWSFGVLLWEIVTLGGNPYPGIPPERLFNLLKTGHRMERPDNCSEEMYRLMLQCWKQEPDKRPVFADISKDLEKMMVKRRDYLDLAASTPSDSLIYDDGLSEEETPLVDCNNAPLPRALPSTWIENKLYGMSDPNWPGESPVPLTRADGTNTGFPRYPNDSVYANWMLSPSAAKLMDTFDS
Chain of off-target kinases (Homo sapiens, UniProt P17948) (P17948 27-1338): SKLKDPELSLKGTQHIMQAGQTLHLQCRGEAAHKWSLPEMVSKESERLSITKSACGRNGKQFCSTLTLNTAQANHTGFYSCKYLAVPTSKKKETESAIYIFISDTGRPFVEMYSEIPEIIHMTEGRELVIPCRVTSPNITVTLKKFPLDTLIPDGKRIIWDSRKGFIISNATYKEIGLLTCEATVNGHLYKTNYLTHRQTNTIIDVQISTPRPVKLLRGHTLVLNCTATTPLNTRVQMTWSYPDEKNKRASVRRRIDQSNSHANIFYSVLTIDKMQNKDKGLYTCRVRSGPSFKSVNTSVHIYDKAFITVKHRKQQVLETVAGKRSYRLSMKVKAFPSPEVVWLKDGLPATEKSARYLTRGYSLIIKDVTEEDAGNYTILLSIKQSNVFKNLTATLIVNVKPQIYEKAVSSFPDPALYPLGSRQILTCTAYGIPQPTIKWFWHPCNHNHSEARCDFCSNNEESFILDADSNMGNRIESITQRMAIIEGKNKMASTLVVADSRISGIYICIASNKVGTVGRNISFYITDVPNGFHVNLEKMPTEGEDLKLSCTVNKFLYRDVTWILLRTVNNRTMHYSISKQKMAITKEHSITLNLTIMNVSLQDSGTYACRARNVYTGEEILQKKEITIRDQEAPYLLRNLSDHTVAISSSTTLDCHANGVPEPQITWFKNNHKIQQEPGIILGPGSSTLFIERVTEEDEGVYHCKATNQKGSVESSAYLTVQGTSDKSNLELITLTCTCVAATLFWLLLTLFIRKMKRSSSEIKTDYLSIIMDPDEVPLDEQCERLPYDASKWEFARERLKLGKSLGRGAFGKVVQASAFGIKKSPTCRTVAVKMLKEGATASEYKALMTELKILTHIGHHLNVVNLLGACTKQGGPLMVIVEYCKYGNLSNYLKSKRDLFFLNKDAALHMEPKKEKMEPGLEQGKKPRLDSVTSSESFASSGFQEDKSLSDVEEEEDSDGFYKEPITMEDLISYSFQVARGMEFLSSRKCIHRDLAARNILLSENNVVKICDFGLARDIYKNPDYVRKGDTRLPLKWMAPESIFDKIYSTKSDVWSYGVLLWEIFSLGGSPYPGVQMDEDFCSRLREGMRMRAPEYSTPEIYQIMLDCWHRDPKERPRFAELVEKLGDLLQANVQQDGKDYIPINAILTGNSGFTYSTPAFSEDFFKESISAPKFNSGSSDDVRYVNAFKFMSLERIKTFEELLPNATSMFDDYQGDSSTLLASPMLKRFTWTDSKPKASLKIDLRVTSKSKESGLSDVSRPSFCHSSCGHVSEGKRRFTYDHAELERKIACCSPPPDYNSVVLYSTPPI
Chain of off-target kinases (Homo sapiens, UniProt Q14680) (Q14680 whole entry): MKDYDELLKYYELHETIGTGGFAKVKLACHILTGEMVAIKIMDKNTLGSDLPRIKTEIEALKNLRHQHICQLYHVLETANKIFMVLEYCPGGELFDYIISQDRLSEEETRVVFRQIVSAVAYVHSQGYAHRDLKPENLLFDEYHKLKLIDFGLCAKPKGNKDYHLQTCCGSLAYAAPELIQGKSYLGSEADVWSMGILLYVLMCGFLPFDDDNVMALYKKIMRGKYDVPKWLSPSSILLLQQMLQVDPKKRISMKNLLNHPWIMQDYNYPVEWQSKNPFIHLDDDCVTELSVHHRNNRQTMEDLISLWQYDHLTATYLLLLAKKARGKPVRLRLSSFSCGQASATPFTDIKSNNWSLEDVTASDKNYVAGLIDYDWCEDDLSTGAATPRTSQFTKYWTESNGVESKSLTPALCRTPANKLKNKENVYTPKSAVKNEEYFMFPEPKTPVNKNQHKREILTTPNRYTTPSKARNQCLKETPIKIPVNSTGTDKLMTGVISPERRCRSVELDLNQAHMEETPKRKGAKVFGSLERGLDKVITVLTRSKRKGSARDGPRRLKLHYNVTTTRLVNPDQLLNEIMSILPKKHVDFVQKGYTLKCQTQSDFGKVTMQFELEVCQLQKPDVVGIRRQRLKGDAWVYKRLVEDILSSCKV
Chain of off-target kinases (Homo sapiens, UniProt P49840) (P49840 whole entry): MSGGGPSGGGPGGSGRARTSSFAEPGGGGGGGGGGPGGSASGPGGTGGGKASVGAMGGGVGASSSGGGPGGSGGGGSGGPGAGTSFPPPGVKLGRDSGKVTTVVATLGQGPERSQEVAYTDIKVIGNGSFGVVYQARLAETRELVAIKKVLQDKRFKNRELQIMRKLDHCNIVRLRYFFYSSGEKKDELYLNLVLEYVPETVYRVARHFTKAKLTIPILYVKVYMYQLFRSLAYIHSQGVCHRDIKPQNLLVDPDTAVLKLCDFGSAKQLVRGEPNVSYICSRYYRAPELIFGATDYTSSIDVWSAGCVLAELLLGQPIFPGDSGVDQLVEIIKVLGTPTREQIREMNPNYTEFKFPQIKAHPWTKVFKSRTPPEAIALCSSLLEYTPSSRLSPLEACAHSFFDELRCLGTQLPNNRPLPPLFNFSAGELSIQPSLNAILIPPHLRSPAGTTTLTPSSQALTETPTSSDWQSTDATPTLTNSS

Work on `N#Cc1cc(-c2ncnc(Nc3ccc(N4CCN(C5COC5)CC4)cc3)n2)ccc1OC1CCOCC1` [Compound 1, 5-(4-((4-(4-(oxetan-3-yl)piperazin-1-yl)phenyl)amino)-1,3,5-triazin-2-yl)-2-((tetrahydro-2H-pyran-4-yl)oxy)benzonitrile] yielded an inhibition (off-target kinases [1]; read-out: % Inhibition 1) of 1%, an inhibition (off-target kinases [1]; read-out: % Inhibition 2) of 8% and an inhibition (off-target kinases [1]; read-out: % Inhibition Avg) of 5%. For the same compound, the inhibition (off-target kinases [2]; read-out: % Inhibition 1) was 11%, the inhibition (off-target kinases [2]; read-out: % Inhibition 2) was 6% and the inhibition (off-target kinases [2]; read-out: % Inhibition Avg) was 8%. It also gave an inhibition (off-target kinases [3]; read-out: % Inhibition 1) of 12%, an inhibition (off-target kinases [3]; read-out: % Inhibition 2) of 6% and an inhibition (off-target kinases [3]; read-out: % Inhibition Avg) of 9%. The inhibition (off-target kinases [4]; read-out: % Inhibition 1) was 10%, the inhibition (off-target kinases [4]; read-out: % Inhibition 2) was 13% and the inhibition (off-target kinases [4]; read-out: % Inhibition Avg) was 12%. The inhibition (off-target kinases [5]; read-out: % Inhibition 1) was 98%, the inhibition (off-target kinases [5]; read-out: % Inhibition 2) was 94% and the inhibition (off-target kinases [5]; read-out: % Inhibition Avg) was 96%. It also gave an inhibition (off-target kinases [6]; read-out: % Inhibition 1) of 7%, an inhibition (off-target kinases [6]; read-out: % Inhibition 2) of 4% and an inhibition (off-target kinases [6]; read-out: % Inhibition Avg) of 6%. It also gave an inhibition (off-target kinases [7]; read-out: % Inhibition 1) of 20%, an inhibition (off-target kinases [7]; read-out: % Inhibition 2) of 22% and an inhibition (off-target kinases [7]; read-out: % Inhibition Avg) of 21%. The inhibition (off-target kinases [8]; read-out: % Inhibition 1) was 12%, the inhibition (off-target kinases [8]; read-out: % Inhibition 2) was 13% and the inhibition (off-target kinases [8]; read-out: % Inhibition Avg) was 12%. It also gave an inhibition (off-target kinases [9]; read-out: % Inhibition 1) of 25%, an inhibition (off-target kinases [9]; read-out: % Inhibition 2) of 22% and an inhibition (off-target kinases [9]; read-out: % Inhibition Avg) of 23%. The inhibition (off-target kinases [10]; read-out: % Inhibition 1) was 11%, the inhibition (off-target kinases [10]; read-out: % Inhibition 2) was 12% and the inhibition (off-target kinases [10]; read-out: % Inhibition Avg) was 12%.
